What was measured:
[1] = test system: acute unilateral renal hypertensive rats; assay: blood pressure in acute unilateral renal hypertensive rats; format: in vivo; conditions: intravenous infusion
blood pressure = assay: in vivo pressor response on infusion into anesthetized, vagotomized rats; conditions: scale set artificially at 100 for angiotensin II
Protocol: In the in vivo assays, rats were anesthetized with sodium amytal and further treated with 0.6 mg atropine and pentolinium tartrate. They were vagotomized and direct recording of the blood pressure was measured through the carotid artery, while the femoral artery was used for infusing the desired dose over a period of 30 minutes in a physiological saline solution.
The dose-response curves of angiotensin II at 0.9 to 54 ng/kg/min. were compared by linear regression analysis with those of the antagonist at doses of 1, 10, 100 and 1000 ng/kg/min. Infusion of the above antagonist into rats thus prepared led to the initial transient pressor response of 0.48 on a scale set artificially at 100 for angiotensin II using the same system.

[2] = water solubility and storage of solution; format: physicochemical
Protocol: Since the above compound is particularly suitable for injection or infusion, it is particularly valuable that the compound is watersoluble. A suitable dosage unit can be prepared by simply dissolving the above compound in water or physiological saline at a concentration of between 50 and 6000 ng/ml. […] A commonly employed buffer for an injectable solution is Tris(hydroxymethyl) aminomethane but simple salts such as sodium phosphate or acetate can be used. Preferably, the vehicle or medium in which the compound of Formula I is dissolved for an injectable or infusable solution is buffered to a pH of 7 to 7.5.

[3] = duration of action after i.m. injection of an oil solution; format: in vivo; conditions: single i.m. injection, dissolved in oil
Protocol: The duration of action of the compound can be prolonged by injecting an oil solution intramuscularly. Oils suitable for this purpose are cod liver oil, sesame oil, refined coconut oil, etc. Antagonistic effects are thus observed for 24 hours or longer after a single i.m. injection of the drug dissolved in such an oil.

[4] = test system: pressor response of angiotensin II; assay: blocking of the pressor response of angiotensin II in ganglion blocked rats; format: in vivo
Protocol: For determining its antagonistic properties the compound was infused intravenously in ganglion blocked rats at a dose level of 125, 250, 500, 1250 ng/kg/min. The blocking effect of the compound was calculated from the dose-response curve of angiotensin II before and during the infusion of the analog. General procedure adopted for this assay has been described by Bumpus et al., Circ. Res. 32-33 (Supplement I), I-150 (1973). […] The dose-ratio obtained was 62.50 ± 14.93 at a dose-level of 250 ng/kg/min.

## CC[C@H](C)[C@H](NC(=O)[C@H](Cc1ccc(O)cc1)NC(=O)[C@@H](NC(=O)[C@H](CCCNC(=N)N)NC(=O)CNC)C(C)C)C(=O)N[C@@H](Cc1cnc[nH]1)C(=O)N1CCC[C@H]1C(=O)N[C@H](C(=O)O)[C@@H](C)OC [Formula I, Sar'-(OMe)Thr^8 Angiotensin II]
[1]
  blood pressure: capable of reducing blood pressure
Blood pressure
  initial transient pressor response: 0.48
[2]
  water solubility: watersoluble
[2]; solution in water or physiological saline, 50-6000 ng/ml, proper conditions
  storage of solution without deterioration: several weeks without deterioration
[3]
  duration of antagonistic effects: ≥ 24 h
[4]; dose-level of 250 ng/kg/min, intravenous infusion, ganglion blocked rats
  dose-ratio: 62.50 ± 14.93
[4]; intravenous infusion into rats in a very small amount
  pressor effect of angiotensin II: inhibited
[4]; intravenous infusion, ganglion blocked rats
  dose level at which the pressor response of angiotensin II was blocked: ≥ 125 ng/kg/min

From US3976770A, “Sar'-(OMe)Thr^8 Angiotensin II as an angiotensin II antagonist” (priority 1975, dated 1976)
